Results as given in patent US9067894B1, “Compound, composition, and method of activating GIRK potassium channel and use of same for treating conditions of interest” (Vanderbilt University, priority 2013, dated 2015).
Where “and” joins values, the source holds several entries; their conditions need not be identical. Identical values can stand only once.

Legend:
GIRK1/2 = target: T1, GIRK1/2 (Homo sapiens, UniProt P48051+P48549); experiment: Thallium flux, pertussis toxin-treated cells co-expressing mGlu8 and GIRK1/2; type: cell-based; design: host or cells: HEK-293; settings: 600 ng/ml pertussis toxin; VU0456810 10 μM, glutamate 100 μM
T1 sequence (P48549 1-501): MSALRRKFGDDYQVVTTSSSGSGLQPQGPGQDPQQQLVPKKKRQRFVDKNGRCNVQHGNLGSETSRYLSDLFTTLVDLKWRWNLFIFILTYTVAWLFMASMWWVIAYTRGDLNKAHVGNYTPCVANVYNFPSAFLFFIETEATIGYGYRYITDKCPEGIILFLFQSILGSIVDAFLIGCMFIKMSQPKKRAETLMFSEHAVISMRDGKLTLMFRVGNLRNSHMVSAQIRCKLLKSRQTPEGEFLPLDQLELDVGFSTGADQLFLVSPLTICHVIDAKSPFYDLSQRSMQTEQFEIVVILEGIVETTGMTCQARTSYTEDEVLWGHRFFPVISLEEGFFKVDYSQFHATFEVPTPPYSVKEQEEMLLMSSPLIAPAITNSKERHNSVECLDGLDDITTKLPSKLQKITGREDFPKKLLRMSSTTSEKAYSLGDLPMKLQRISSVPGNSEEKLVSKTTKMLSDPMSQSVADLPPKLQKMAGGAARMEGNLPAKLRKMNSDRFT
T1 sequence (P48051 1-423): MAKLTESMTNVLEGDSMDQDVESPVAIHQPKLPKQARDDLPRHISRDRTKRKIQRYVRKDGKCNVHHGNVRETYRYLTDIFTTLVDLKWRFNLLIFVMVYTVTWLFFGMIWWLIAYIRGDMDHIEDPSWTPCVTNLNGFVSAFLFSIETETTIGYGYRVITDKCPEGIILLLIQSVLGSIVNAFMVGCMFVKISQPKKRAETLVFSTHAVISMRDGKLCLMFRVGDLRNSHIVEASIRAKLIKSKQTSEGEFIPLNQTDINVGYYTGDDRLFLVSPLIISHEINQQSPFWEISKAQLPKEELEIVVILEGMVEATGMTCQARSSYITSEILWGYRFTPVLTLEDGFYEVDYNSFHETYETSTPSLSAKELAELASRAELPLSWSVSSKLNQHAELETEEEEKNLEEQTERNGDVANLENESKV
Excerpt: Cell Line Construction and Cell Culture. HEK-293 cells co-expressing human GIRK1/2 and rat mGlu8 were generated as previously described (Niswender et al., 2008). A HEK-293 cell line (ATCC, Manassas, Va.) expressing human GIRK1 and human GIRK2 was constructed by transfecting HEK-293 cells with GIRK1 and GIRK2 (Origene, Rockville, Md.) cloned into the pBudCE4.1 vector (Life Technologies, Carlsbad, Calif.) using FuGene 6 (Promega, Madison, Wis.) transfection reagent. Unless otherwise noted, other ion channel-expressing cells were prepared by transfecting HEK-293 cells with individual or combinations of subunits: GIRK1, pCMV6-A-BSD; GIRK2, pCMV6-A-puro; GIRK3, pCMV6-A-hygro; GIRK4, pCMV6-A-AC; Kv7.4, pIRESneo3. The Kir2.1 and hERG-expressing cell lines were made by transfecting T-REx-293 cells (Life Technologies, Carlsbad, Calif.) with Kir2.1 and Kv11.1, respectively, cloned into pcDNA5TO. Monoclonal cell lines were produced by limiting-dilution cloning of antibiotic-resistant cells and functional selection using the thallium flux assay described below. Unless otherwise noted, cells were maintained in Minimal Essential Medium, Alpha Medium (Mediatech, Manassas, Va.) supplemented with 10% fetal bovine serum (Sigma-Aldrich, Saint Louis, Mo.) and GlutaGro (Mediatech, Manassas, Va.), referred to henceforth as cell culture medium. […]

GIRK = settings: read-out: potency / reported EC50 as GIRK activator; cited from earlier work
[1] = Maximal electroshock (MES) model of epilepsy; type: in vivo, mouse; settings: mice, i.p.; VU0456810 60 mg/kg, sodium valproate 150 mg/kg; vs vehicle
Experimental: MES stimulation was applied, 30 minutes after injection, through transauricular (ear-clip) electrodes from an electroshock apparatus, HSE Shock Stimulator Type 221, (Harvard Apparatus, Holliston, Mass.) using the following parameters: 100-mA fixed current, a 50-60-Hz pulse frequency, a 0.6-ms pulse width and a 0.3-s stimulus duration. Animals were restrained by hand when applying the electrodes and released at the moment of stimulation to permit observation of the seizure throughout its entire course. Upon completion of the electrical stimulus, the amount of time until death was recorded. […] In this modified MES test, the electrical stimulus that was applied was sufficient to induce seizures and death from maximal seizure in 100% of the control mice.
(§1) In all cases, experiments were conducted in a blind manner with respect to the experimenters. Data were evaluated in Excel using one-tailed, unpaired Student's t-test, assuming populations with unequal variance.

[2] = Pentylenetetrazol (PTZ)-induced seizure model; type: in vivo, mouse; settings: mice, i.p.; VU0456810 60 mg/kg, sodium valproate 150 mg/kg; PTZ 40 mg/kg; 20 minute timeframe
Experimental: After thirty minutes, PTZ was administered intraperitoneally (i.p., 40 mg/kg). Immediately following administration of PTZ, the amount of time elapsed before the first occurrence of tremors, tonic-clonic seizures, convulsion, and death was recorded. All mice were subject to a 20-minute post-[…] cutoff.
as §1

N[C@@H](CCC(=O)O)C(=O)O [glutamate, reference compound]
effect of pertussis toxin treatment on evoked thallium flux (GIRK1/2): abolishing

C[C@@H]1O[C@@H](O[C@H]2[C@H](Oc3cc(O)c4c(c3)O[C@H](c3ccc(O)cc3)CC4=O)O[C@H](CO)[C@@H](O)[C@@H]2O)[C@H](O)[C@H](O)[C@H]1O [naringin]
EC50 (GIRK): ~100 µM and > 100 µM

CCCC(CCC)C(=O)[O-].[Na+] [sodium valproate, reference compound]
latency of seizure onset [1]: highly significant delays in seizure onset
animals experiencing convulsions from PTZ treatment [2]: significant decrease
animals surviving PTZ treatment [2]: significant increase
